# How the values were obtained:
# [1] = system: STING and its downstream proteins TBK1 and IRF3 in Raw264.7 cells; assay: Western blotting of phosphorylation of STING signal pathway proteins in mouse Raw264.7 cells; assay type: cell-based; details: 3 hours, protein blotting, FIGS. 6-7, result in words
# Excerpt: In this experiment, the changes in the phosphorylation levels of STING and its downstream proteins TBK1 (TANK-binding kinase 1) and IRF3 (interferon regulatory factor 3) were detected by protein blotting to evaluate the agonistic effect of the test compounds on the STING signal pathway at the cellular level.
# The Raw264.7 cells in the logarithmic phase were centrifuged, and resuspended in a cell culture solution to a density of 1.6×10^6 cells/mL. The cell suspension was inoculated into a 6-well cell culture plate (Corning) at 1 mL/well. The compound to be tested was diluted with a cell culture solution to 2× working solution concentration (control compounds 1 and 2: 60 μM; compound 8: 0.6 μM, 6 μM, and 60 μM; compounds 2, 4 and 6: 6 μM, 20 μM, and 60 μM). 1 mL of the diluted solution of the compound was added into a 6-well plate (1 mL of the culture solution containing 2% DMSO was added into the negative control well). The plate was placed in a cell incubator, and incubated for 3 hours. After the incubation, the cells were collected by centrifugation, lysed with 60 μL cell lysis buffer (CST) for 30 minutes, and centrifuged at 12000 rpm for 15 minutes. The supernatant was collected to determine the protein concentration, and then an appropriate amount of 5× protein loading buffer was added. The mixture was heated at 95° C. for 10 minutes to prepare a protein electrophoresis sample. Finally, protein blotting was performed to detect the phosphorylation level of the corresponding protein. The primary antibodies used in the protein blotting were purchased from CST: STING (D2P2F) rabbit mAb, Phospho-STING (Ser365) rabbit mAb, Phospho-IRF3 (Ser396) (D601M) rabbit mAb, IRF3 (D83B9) rabbit mAb, TBK1/NAK (D1B4) rabbit mAb, Phospho-TBK1/NAK (Ser172) (D52C2) XPV rabbit mAb, GAPDH (D16H11) rabbit mAb; and the secondary antibody horseradish peroxidase-conjugated goat anti-rabbit IgG (H+L) was purchased from Zsgb-bio.
# [2] = system: STING pathway cytokine mIFN-β in mouse Raw264.7 cells; assay: ELISA of STING pathway cytokine mIFN-β expression in mouse Raw264.7 cells; assay type: cell-based; details: for Emax: highest expression of mIFN-β; for Emax / EC50: 6 h, ELISA; for EC50: mIFN-β expression; for agonistic effect on the expression of mIFN-β: result in words
# Excerpt: In this experiment, the expression of STING signal pathway cytokine mIFN-β was detected in Raw264.7 cells (Nanjing Cobioer) by the ELISA method, so as to evaluate the agonistic effect of the compound to be tested on the expression of STING pathway cytokine mIFN-β at the cellular level.
# Raw264.7 cells (Nanjing Cobioer) in the logarithmic phase were centrifuged, and resuspended in a cell culture solution to a density of 1.6×10^6 cells/ml. The cell suspension was inoculated into a 24-well cell culture plate (Corning) at 250 μL/well. The mother liquor of the compound to be tested was gradiently diluted with a cell culture solution to obtain a 2× working concentration diluted solution (control compound 1 was diluted at a 3-fold gradient: 200, 66.67, 22.22, 7.41, 2.47, 0.82, 0.27 and 0 μM; control compound 2 was diluted at a 2-fold gradient: 200, 100, 50, 25, 12.5, 6.25, 3.125 and 0 μM; and compounds 4, 6 and 8 were diluted at a 4-fold gradient: 200, 50, 12.5, 3.13, 0.78, 0.20, 0.049 and 0 μM). The 2× working concentration diluted solution of the compound was added into a 24-well plate (250 μl of the culture solution containing 2% DMSO was added into the negative control well) at 250 μL/well. The culture plate was then placed in a cell incubator, and incubated for 6 h. After the cell incubation, the supernatant was collected by centrifugation at 300 g×5 min, and the mIFN-β content (pg/ml) in the cell culture supernatant was detected according to the operating instructions of the VeriKinem Mouse IFN Beta ELISA Kit from PBL (obtained by conversion of the OD450 nm absorbance-mIFN-β standard concentration standard curve and the OD450 nm absorbance value read by the microplate reader). EC50 was calculated through log(agonist) vs. response—Variable slope fitting by the Graphpad Prism software, and the experimental results are shown in Table 3.
# In the table, EC50 refers to the concentration of a compound when the expression of mIFN-β generated by stimulation of the compound reaches half of Emax; and Emax refers to the highest expression of mIFN-β generated by stimulation of the compound.
# hSTING protein = biological target: T1, hSTING protein (Homo sapiens, UniProt Q86WV6); assay: Human STING binding kit (HTRF) competitive binding assay; details: for Ki: calculated as Ki=1/2*IC50 per kit instructions; for IC50: competition with d2-STING-ligand for 6×His-hSTING, HTRF, 3 h at 25° C.; for binding affinity to the hSTING protein: result in words
# T1 construct: purchased Cisbio
# T1 sequence (Q86WV6 whole entry H232R): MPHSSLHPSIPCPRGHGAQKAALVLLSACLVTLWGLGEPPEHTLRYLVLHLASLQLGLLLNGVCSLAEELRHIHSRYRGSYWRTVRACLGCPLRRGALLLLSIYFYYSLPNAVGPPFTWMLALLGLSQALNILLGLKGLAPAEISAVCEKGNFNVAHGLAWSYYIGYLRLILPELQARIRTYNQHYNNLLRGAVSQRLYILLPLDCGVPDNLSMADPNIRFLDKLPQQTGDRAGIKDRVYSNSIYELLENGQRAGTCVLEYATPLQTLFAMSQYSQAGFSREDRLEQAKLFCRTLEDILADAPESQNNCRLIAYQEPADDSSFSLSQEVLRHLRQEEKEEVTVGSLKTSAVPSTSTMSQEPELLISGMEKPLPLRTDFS
# Excerpt: In this experiment, the capability of the compound and the specific ligand (d2-STING-ligand) in a Human STING binding kit from Cisbio for competitively binding to the 6×His-hSTING protein was detected using the Human STING binding kit (HTRF method), so as to evaluate the binding affinity between the compound to be tested and the hSTING protein.
# The compound was gradiently diluted with a dilution buffer in the Human STING binding kit (the diluent buffer reagent) to obtain a 4× working concentration diluted solution. […] The 6×His-hSTING protein (50× in the mother liquor) was diluted to 1× with the detection buffer in the Human STING binding kit (the detection buffer reagent). 5 μl of the diluted solution was added into the corresponding wells of a 384-well plate, and the well with no protein and no compound was set as a negative control well (min), while the well with the protein and no compound was set as a positive control well (max). The d2-STING-ligand and Tb^3+-anti-6×His-antibody (both 50× in the mother liquor) were diluted to 1× with the detection buffer in the Human STING binding kit (the detection buffer reagent), and mixed uniformly at a ratio of 1:1. 10 μl of the mixed solution was added to the corresponding wells of a 384-well plate. The plate was sealed and incubated at room temperature (25° C.) for 3 h. A BMG microplate reader was used to read HTRF, and the ratio was calculated according to the following formula: Ratio=signal665nm/signal620nm×10000. […] IC50 was calculated through log(inhibitor) vs. response—Variable slope fitting by the Graphpad Prism software.
EC50 [2],Ki (hSTING protein),IC50 (hSTING protein),binding affinity to the hSTING protein (hSTING protein),Structure (SMILES),"agonistic effect on the phosphorylation levels of STING, TBK1 and IRF3 [1]",Emax [2],agonistic effect on the expression of mIFN-β [2]
3.6 µM,16.1 nM,32.2 nM,strong binding affinity,"COc1cc2sc(C(=O)N(C)CCC(=O)O)cc2cc1OCCCOc1cc2sc(C(=O)CCC(=O)O)cc2cc1OC [Compound 4, 4-(6-(3-((2-((2-carboxyethyl)(methyl)carbamoyl)-6-methoxybenzo[b]thiophen-5-yl)oxy)propoxy)-5-methoxybenzo[b]thiophen-2-yl)-4-oxobutanoic acid]",strong agonistic effects,1082.21 pg/mL,strong agonistic effect
3.8 µM,4.55 nM,9.1 nM,strong binding affinity,"COc1cc2sc(C(=O)CCC(=O)O)cc2cc1OCCCOc1cc2sc(C(=O)N(C)CCC(=O)O)cc2cc1OC [Compound 6, 4-(5-(3-((2-((2-carboxyethyl)(methyl)carbamoyl)-5-methoxybenzo[b]thiophen-6-yl)oxy)propoxy)-6-methoxybenzo[b]thiophen-2-yl)-4-oxobutanoic acid]",strong agonistic effects,1012.51 pg/mL,strong agonistic effect
0.56 µM,0.069 nM,0.139 nM,strong binding affinity,"COc1cc2sc(C(=O)CCC(=O)O)cc2cc1OCCCOc1cc2cc(C(=O)N(C)CCC(=O)O)sc2cc1OC [Compound 8, 4-(5-(3-((2-((2-carboxyethyl)(methyl)carbamoyl)-6-methoxybenzo[b]thiophen-5-yl)oxy)propoxy)-6-methoxybenzo[b]thiophen-2-yl)-4-oxobutanoic Acid]",strong agonistic effects,1176.75 pg/mL,strong agonistic effect

# Reference: US12269816B2, “Benzothiophene compound, preparation method therefor and use thereof” (SICHUAN KELUN-BIOTECH BIOPHARMACEUTICAL CO., LTD., priority 2019, dated 2025)
